Source: PubChem BioAssay (NCI)
Where “and” joins values, the source holds several entries; their conditions need not be identical. Equal entries are not always repeated.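 Tested at 5 concentrations; 48 h exposure; 96-well plates; endpoints linearly interpolated, else capped at highest concentration. GI50 is the concentration that inhibits growth by half. At the TGI there is no net growth.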

Tests used:
Assay in all cases: growth of human tumour cells (NCI), 48 h
SK-MEL-28 melanoma = system: SK-MEL-28 melanoma
NCI-H226 lung = system: NCI-H226 lung
SN12C renal = system: SN12C renal
MDA-MB-231 breast = system: MDA-MB-231 breast
HT29 colon = system: HT29 colon
OVCAR-5 ovarian = system: OVCAR-5 ovarian
DU-145 prostate = system: DU-145 prostate
MCF7 breast = system: MCF7 breast
A549 NSCLC = system: A549 NSCLC
HL-60(TB) leukemia = system: HL-60(TB) leukemia

Compound	GI50 (SK-MEL-28 melanoma)	TGI (SK-MEL-28 melanoma) [µM]	GI50 (NCI-H226 lung)	TGI (NCI-H226 lung) [µM]	GI50 (SN12C renal)	TGI (SN12C renal) [µM]	GI50 (MDA-MB-231 breast)	TGI (MDA-MB-231 breast) [µM]	GI50 (HT29 colon)	TGI (HT29 colon) [µM]	GI50 (OVCAR-5 ovarian) [µM]	TGI (OVCAR-5 ovarian) [µM]	GI50 (DU-145 prostate) [µM]	TGI (DU-145 prostate) [µM]	GI50 (MCF7 breast)	TGI (MCF7 breast) [µM]	GI50 (A549 NSCLC)	TGI (A549 NSCLC) [µM]	GI50 (HL-60(TB) leukemia)	TGI (HL-60(TB) leukemia) [µM]
Cc1nc2ccccn2c1NC(=O)NN1C(=O)CSC1c1ccc(Cl)cc1 (configuration not stated)	> 100 µM	> 100	> 100 µM	> 100	> 100 µM	> 100	> 100 µM	> 100	> 100 µM	> 100	> 100	> 100	> 100	> 100	> 100 µM	> 100	> 100 µM	> 100	> 100 µM	> 100
COc1ccccc1-n1cnc(N)c1C(=O)c1cc(OC)c(OC)c(OC)c1	9.62 µM	> 100	4.34 µM	> 100	5.65 µM	> 100	5.93 µM	> 100	3.41 µM	> 100	62.5	> 100	6.65	> 100	2.49 µM	> 100	4.42 µM	> 100	3.12 µM	> 100
C[C@@H]1CC[C@H]2[C@@H](C)C(O)O[C@@H]3O[C@]4(C)CC[C@@H]1[C@]32OO4 (some centres not stated)	3.23 µM	> 74.5	1.56 µM	40.9	1.37 µM	> 72.3	6.16 µM	> 56.8	0.634 µM	13.5	0.735	39.4	5.27	17.4	1.66 µM	20.4	1.74 µM	13.5	0.176 µM	0.517
Nc1nc(=O)n(C2CC(O)C(CO)O2)cc1F (configuration not stated)	–	> 100	–	> 100	0.199 µM	> 25.8	10.7 µM	> 100	< 0.0489 µM	> 100	> 100	> 100	–	> 100	0.00235 µM	> 100	0.0049 µM	> 100	> 80.8 µM	> 100
O=C1/C(=C/c2cccnc2)SC(=S)N1Cc1ccco1	–	> 100	–	92	–	45	–	> 51.1	–	> 100	–	> 81.7	–	9.22	–	> 100	–	> 100	–	> 22
CN(C)c1ccc(/C=C/C(=O)c2ccc(Nc3nc(Nc4ccc(F)cc4)nc(Nc4ccc(F)cc4)n3)cc2)cc1	17 µM	75.5	23.4 µM	78.8	43 µM	> 100	13.5 µM	46.4	15.5 µM	66.6	34.4	> 100	25.1	91.6	17.6 µM	> 100	12.8 µM	34.2	12.2 µM	> 100
O=C(O)C1C2C=CC(O2)C1C(=O)NCc1cccnc1 (configuration not stated)	–	> 100	–	> 100	–	> 100	–	> 100	–	> 100	–	> 100	–	> 100	–	> 100	–	> 100	–	> 100
Cc1nnc(C[C@@H]2C=C(c3ccc(Cl)cc3)c3ccccc3-n3c(C)nnc32)o1	2.24 µM	> 100	12.6 µM	> 100	12 µM	> 100	1.5 µM	> 100	0.241 µM	> 100	4.7	> 100	17.6	> 100	0.221 µM	> 100	2.61 µM	> 82.2	0.25 µM	35.5
Cc1cc2c(cc1Cl)SC(N(c1ccccc1Cl)S(=O)(=O)c1ccc(Br)s1)=NS2(=O)=O	15.2 µM	29.6	23.1 µM	> 100	19.5 µM	48.7	18.5 µM	61.8	19.9 µM	41.6	60	> 100	14.5	33	8.88 µM	28.8	25.7 µM	> 100	16.4 µM	41.9
C[C@@H](O)[C@@H](C)Oc1nc(Nc2ccc(S(=N)(=O)C3CC3)cc2)ncc1C(F)(F)F (some centres not stated)	0.0294 µM	0.178	0.0288 µM	0.106	0.0342 µM	> 100	0.0336 µM	> 100	0.033 µM	–	0.033	> 70.6	0.0258	> 61.8	0.0169 µM	29.7	0.0298 µM	15.6	0.0183 µM	0.0544
N#C/C(=C\c1ccc(O)c(O)c1)C(=O)NCc1ccc(C(F)(F)F)cc1	16.9 µM	57	19.8 µM	54.9	4.06 µM	18.8	2.08 µM	18.1	15.7 µM	50.7	14.2	44.7	16.3	> 62.3	21.3 µM	> 69	10.9 µM	53.5	11.6 µM	> 66.5
CNC(=O)c1cc(Oc2ccc3nc(NC(=O)Nc4ccc(CN5CCOCC5)c(C(F)(F)F)c4)sc3c2)ccn1	1.8 µM	4.29	1.73 µM	4.3	2.58 µM	9.36	2.14 µM	5.8	2.14 µM	5.5	2.44	6.9	2.73	9.4	1.75 µM	4.63	2.15 µM	5.86	2.7 µM	7.41
O=CC(OC(=O)c1ccccc1)C(OC(=O)c1ccccc1)C(COC(c1ccccc1)(c1ccccc1)c1ccccc1)OC(=O)c1ccccc1 (configuration not stated)	13.5 µM	28.3	18.9 µM	64.4	17.4 µM	47.9	21.6 µM	> 100	11.7 µM	26.3	21.6	43.9	15.3	28.6	6.38 µM	23.7	22.1 µM	61.7	3.25 µM	20.7
CC/C=C\C[C@H]1C/C=C2/C(=O)C=C[C@H]2C/C=C\CCCC(=O)O1	3.1 µM	11.4	3.4 µM	10.8	2.62 µM	> 50	3.23 µM	14.8	1.85 µM	6.15	3.99	16.8	1.9	7.39	2.21 µM	12.4	2.66 µM	10.3	1.74 µM	12
COc1ccc(-c2nn(-c3cccc(Cl)c3)cc2/C=C2\NC(=S)N(c3ccc(Cl)cc3)C2=O)cc1	4.1 µM	7.97	4.03 µM	9.36	5.48 µM	> 25	3.33 µM	11.5	4.99 µM	10.6	6.31	> 25	8.75	> 25	5.6 µM	> 25	3.35 µM	9.73	8.61 µM	> 25
CCN(C(=O)N1CCN(c2cc3c(cc2F)c(=O)c(C(=O)O)cn3C2CC2)CC1)c1nc(-c2ccccc2)cs1	3 µM	> 100	1.84 µM	3.74	3.44 µM	> 100	2.11 µM	5.92	3.2 µM	> 100	3.27	> 100	3.31	> 100	3.15 µM	> 100	3.11 µM	> 100	1.59 µM	4.35
CC(=O)N[C@H](C)[C@@H](O)[C@@H](C)[C@@H]1OC(=O)/C=C/C=C(C)\C=C\[C@]2(C)C[C@@H](NS(C)(=O)=O)C=C[C@@H]2/C=C(C)/C=C/[C@H]1C	0.008 µM and 0.0222 µM	> 43.5	0.0156 µM and 0.00593 µM	> 43.5	0.00723 µM and 0.0129 µM	> 43.5	0.00125 µM and 0.0046 µM	–	0.00459 µM and 0.00435 µM	> 43.5	> 43.5	> 43.5	–	> 43.5	0.00547 µM and 0.00591 µM	> 43.5	0.0159 µM and 0.00435 µM	> 43.5	0.00579 µM and 0.0124 µM	> 43.5
O=C(NC1CCN(Cc2ccccc2)CC1)c1cc(-c2cccnc2)nc2ccc(Cl)cc12	16.3 µM	> 100	9.72 µM	50.3	5.2 µM	29.2	2.47 µM	13.1	–	–	10.8	> 100	8.78	> 100	4.78 µM	> 100	4.61 µM	44.8	8.27 µM	45.2
